Assay results reported in patent US10632119B2, “Fused bicyclic 2,4-diaminopyrimidine derivative as a dual ALK and FAK inhibitor” (priority 2012, dated 2020).
Values after ≈ are worked out from the molar mass of the structure shown. Where two headings read alike, the source gives them in different places.

Experiments:
[1] = tested on: NCI-H2228 NSCLC tumor xenografts; experiment: Anti-tumor activity, EML4-ALK positive NCI-H2228 NSCLC xenograft; details: for anti-tumor efficacy: 12 days
Text: (§1) Anti-Tumor Activity in EML4-ALK Positive (NCI-H2228 and NCI-H3122) NSCLC Tumor Xenografts in Mice with Oral Dosing
(§2) Generation of EML4-ALK-positive and EML4-ALK-negative NSCLC Subcutaneous Tumor Xenografts in Scid Mice Female Scid/Beige mice (6-8 weeks, Taconic, Hudson. N.Y.) were maintained 5/cage in microisolator units on a standard laboratory diet (Teklad Labchow, Harlan Teklad, Madison, Wis.). Animals were housed under humidity- and temperature controlled conditions and the light/dark cycle was set at 12-hour intervals. Mice were quarantined at least 1 week prior to experimental manipulation. […] The mice were monitored until the tumor xenograft volumes reached 200-500 mm3.
(§3) The length (L) and width (W) of each tumor were measured with vernier calipers and the mouse body weight was determined every two to three days. […] Percent tumor growth inhibition (% TGI) was calculated as follows: (tumor volume of the control group at end of treatment—tumor volume of the treated group at the end of treatment)/tumor volume of the control group at the end of treatment. […] Complete tumor regression (CR) was defined as the tumor volume of the treated group at the end of treatment being less than 5% of the tumor volume of the treated group as the start of treatment. Statistical analyses of tumor volumes and mouse body weights were carried out with the Mann-Whitney Rank Sum Test. Plasma and tumor samples were obtained at 2 hours post final dose at each dose level, and the compound levels in plasma and tumor lysates were measured by LC-MS/MS

[2] = tested on: NCI-H3122 NSCLC tumor xenografts; experiment: Anti-tumor activity, EML4-ALK positive NCI-H3122 NSCLC xenograft; details: for anti-tumor efficacy: 12 days
Text: as §1, §2, §3

ALK [3] = molecular target: T1, ALK (Homo sapiens, UniProt Q9UM73); experiment: ALK enzymatic assay; assay type: biochemical
ALK [4] = molecular target: T1, ALK; experiment: ALK cellular assay; assay type: cell-based
Target sequence in this assay (Q9UM73 with tags, fused parts or gaps): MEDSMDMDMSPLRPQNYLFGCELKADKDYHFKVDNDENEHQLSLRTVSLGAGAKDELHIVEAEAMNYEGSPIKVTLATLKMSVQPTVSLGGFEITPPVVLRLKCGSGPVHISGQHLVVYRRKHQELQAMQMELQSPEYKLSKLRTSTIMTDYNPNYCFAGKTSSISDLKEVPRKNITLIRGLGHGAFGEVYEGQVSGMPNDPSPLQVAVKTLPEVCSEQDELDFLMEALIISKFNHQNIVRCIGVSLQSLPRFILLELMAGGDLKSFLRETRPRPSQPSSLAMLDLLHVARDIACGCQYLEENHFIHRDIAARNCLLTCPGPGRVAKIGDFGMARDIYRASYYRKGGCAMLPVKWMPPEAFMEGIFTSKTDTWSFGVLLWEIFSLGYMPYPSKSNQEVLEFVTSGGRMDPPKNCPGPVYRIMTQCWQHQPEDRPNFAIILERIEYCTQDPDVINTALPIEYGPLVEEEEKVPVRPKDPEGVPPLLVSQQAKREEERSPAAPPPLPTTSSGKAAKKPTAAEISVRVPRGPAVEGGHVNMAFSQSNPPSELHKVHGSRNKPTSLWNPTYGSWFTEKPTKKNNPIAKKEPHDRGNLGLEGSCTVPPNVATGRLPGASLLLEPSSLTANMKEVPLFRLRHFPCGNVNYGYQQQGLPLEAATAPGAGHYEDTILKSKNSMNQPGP

FAK [5] = molecular target: T2, FAK (Homo sapiens, UniProt Q05397); experiment: FAK enzymatic assay; assay type: biochemical
T2 sequence (Q05397 whole entry): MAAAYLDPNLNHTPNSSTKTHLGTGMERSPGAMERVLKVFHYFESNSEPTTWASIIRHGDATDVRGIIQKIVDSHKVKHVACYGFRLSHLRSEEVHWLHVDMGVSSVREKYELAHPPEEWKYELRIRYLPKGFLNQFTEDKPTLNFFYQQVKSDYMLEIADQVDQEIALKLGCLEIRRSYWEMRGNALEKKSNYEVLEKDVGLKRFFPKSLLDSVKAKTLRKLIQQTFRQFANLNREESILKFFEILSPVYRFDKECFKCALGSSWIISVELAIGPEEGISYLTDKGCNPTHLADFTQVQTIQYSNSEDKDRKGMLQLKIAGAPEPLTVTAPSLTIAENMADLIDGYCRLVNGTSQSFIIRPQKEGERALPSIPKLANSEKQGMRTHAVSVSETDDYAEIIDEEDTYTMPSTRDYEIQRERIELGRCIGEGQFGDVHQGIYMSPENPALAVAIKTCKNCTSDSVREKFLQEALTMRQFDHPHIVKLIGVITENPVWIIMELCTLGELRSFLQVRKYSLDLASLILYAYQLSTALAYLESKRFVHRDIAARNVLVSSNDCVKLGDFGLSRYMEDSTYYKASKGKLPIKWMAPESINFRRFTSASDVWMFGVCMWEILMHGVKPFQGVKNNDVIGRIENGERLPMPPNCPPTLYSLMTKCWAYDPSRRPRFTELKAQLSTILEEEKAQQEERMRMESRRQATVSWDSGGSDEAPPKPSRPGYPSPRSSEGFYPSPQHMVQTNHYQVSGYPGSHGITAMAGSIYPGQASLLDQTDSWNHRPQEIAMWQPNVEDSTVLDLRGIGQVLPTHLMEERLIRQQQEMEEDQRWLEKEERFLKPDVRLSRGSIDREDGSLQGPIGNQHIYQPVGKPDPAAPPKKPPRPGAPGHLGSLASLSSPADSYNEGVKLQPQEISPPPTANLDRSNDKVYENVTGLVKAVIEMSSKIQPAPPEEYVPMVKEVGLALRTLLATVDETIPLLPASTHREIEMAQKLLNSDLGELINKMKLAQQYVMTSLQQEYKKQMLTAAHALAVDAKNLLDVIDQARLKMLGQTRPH

FAK [6] = molecular target: T2, FAK; experiment: FAK cellular assay; assay type: cell-based
Adrenergic α1B (R) = Adrenergic α1B (R) (Rattus norvegicus, UniProt P15823); experiment: Receptor selectivity (Cerep); assay type: binding
Adrenergic α1D (H) = Adrenergic α1D (H) (Homo sapiens, UniProt P25100); experiment: Receptor selectivity (Cerep); assay type: binding
Sequence of Adrenergic α1D (H) (P25100 whole entry): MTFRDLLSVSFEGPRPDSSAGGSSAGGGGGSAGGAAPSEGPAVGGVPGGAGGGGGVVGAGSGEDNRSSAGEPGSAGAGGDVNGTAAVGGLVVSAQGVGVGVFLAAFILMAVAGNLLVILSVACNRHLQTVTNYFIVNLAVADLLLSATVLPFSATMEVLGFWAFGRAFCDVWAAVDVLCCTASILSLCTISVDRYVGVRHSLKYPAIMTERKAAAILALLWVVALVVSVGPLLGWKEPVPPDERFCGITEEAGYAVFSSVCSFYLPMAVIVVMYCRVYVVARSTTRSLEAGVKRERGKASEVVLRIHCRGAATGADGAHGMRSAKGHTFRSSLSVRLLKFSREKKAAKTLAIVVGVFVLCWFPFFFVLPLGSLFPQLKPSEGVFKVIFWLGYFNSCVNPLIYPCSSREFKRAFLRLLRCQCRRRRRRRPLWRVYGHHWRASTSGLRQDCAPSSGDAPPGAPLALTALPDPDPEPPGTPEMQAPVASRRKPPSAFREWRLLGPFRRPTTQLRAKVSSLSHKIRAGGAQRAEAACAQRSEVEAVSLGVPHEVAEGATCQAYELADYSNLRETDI

hERG = hERG (Homo sapiens, UniProt Q12809); experiment: hERG patch clamp; assay type: cell-based
Sequence of hERG (Q12809 whole entry): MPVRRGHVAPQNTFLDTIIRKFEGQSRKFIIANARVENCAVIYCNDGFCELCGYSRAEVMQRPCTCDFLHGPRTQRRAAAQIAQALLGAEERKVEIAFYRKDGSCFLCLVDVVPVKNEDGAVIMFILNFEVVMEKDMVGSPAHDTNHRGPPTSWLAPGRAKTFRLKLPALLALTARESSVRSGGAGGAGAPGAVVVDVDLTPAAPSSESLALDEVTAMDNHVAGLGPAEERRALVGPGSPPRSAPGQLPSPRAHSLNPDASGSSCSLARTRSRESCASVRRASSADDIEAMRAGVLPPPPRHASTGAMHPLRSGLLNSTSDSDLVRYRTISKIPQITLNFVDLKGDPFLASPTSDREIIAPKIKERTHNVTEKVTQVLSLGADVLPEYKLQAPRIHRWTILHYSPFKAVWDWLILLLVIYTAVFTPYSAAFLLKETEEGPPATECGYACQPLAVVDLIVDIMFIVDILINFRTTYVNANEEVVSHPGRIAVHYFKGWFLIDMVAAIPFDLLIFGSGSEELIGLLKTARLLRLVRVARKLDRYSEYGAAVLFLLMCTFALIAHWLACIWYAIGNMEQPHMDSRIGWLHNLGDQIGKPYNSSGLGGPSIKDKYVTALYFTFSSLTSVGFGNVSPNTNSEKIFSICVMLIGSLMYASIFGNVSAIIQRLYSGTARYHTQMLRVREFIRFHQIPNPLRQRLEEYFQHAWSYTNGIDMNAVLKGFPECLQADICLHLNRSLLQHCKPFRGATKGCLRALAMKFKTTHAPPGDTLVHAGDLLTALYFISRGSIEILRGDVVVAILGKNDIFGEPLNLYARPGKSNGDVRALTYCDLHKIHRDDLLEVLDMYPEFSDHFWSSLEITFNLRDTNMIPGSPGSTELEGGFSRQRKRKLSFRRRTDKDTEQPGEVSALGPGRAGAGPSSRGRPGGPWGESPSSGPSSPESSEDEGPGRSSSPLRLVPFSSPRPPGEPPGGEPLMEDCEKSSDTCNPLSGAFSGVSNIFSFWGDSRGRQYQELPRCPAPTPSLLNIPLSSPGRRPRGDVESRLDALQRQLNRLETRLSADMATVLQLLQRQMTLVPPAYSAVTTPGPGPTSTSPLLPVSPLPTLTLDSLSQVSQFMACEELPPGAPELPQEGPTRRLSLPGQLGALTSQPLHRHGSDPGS

Equilibrium solubility = assay type: physicochemical; details: thermodynamic from solid
[7] = In vitro metabolic stability, mouse; assay type: in vitro ADME; details: mouse (M); read-out: In vitro metabolic stability t1/2
[8] = In vitro metabolic stability, rat; assay type: in vitro ADME; details: rat (R); read-out: In vitro metabolic stability t1/2
[9] = In vitro metabolic stability, monkey; assay type: in vitro ADME; details: monkey (Mo); read-out: In vitro metabolic stability t1/2
[10] = In vitro metabolic stability, human; assay type: in vitro ADME; details: human (H); read-out: In vitro metabolic stability t1/2
[11] = In vitro metabolic stability, dog; assay type: in vitro ADME; details: dog (D); read-out: In vitro metabolic stability t1/2
CYP 1A2 = CYP 1A2 (Homo sapiens, UniProt P05177); experiment: CYP inhibition; assay type: in vitro ADME
CYP 2C9 = CYP 2C9 (Homo sapiens, UniProt P11712); experiment: CYP inhibition; assay type: in vitro ADME
CYP 2C19 = CYP 2C19 (Homo sapiens, UniProt P33261); experiment: CYP inhibition; assay type: in vitro ADME
CYP 2D6 = CYP 2D6 (Homo sapiens, UniProt P10635); experiment: CYP inhibition; assay type: in vitro ADME
Caco-2 permeability = assay type: in vitro ADME; details: human
Protein binding, mouse = assay type: in vitro ADME; details: mouse (M)
Protein binding, dog = assay type: in vitro ADME; details: dog (D)
Protein binding, human = assay type: in vitro ADME; details: human (H)
Rat bioavailability = details: in vivo
Mouse bioavailability = assay type: in vivo; details: CEP-37440 as amorphous HCl salt
Monkey bioavailability = details: in vivo, po
in vivo = experiment: in vivo
Method: One additional group of 20 animals/sex served as the control and received the vehicle, distilled water. The drug or vehicle was administered to all groups via oral gavage, once a day for 91 consecutive days, at a dose volume of 10 mL/kg/dose. Following the dosing period, five animals/sex/group were maintained for a 4-week recovery period. Additionally, one group of three animals/sex and three groups of nine animals/sex/group served as toxicokinetic (TK) animals and received the vehicle or drug in the same manner and at the same dose levels as the main study groups.
Observations for morbidity, mortality, injury, and the availability of food and water were conducted at least twice daily for all animals. Clinical observations were conducted on main study animals weekly. Body weights were measured and recorded for all animals prior to initiation of dosing (week −1) and weekly during the study. Food consumption was measured and recorded for main study animals weekly. Ophthalmoscopic examinations were conducted on main study animals pretest and prior to the terminal and recovery necropsies. Blood samples for designated clinical pathology evaluations were collected from main study animals at the end of week 4 and at the terminal and recovery necropsies. Urine samples for urinalysis evaluations were collected from main study animals prior to the terminal and recovery necropsies. Blood samples for determination of the plasma concentrations of the drug were collected from designated TK animals at designated time points on day 1, week 4, and week 13. After the final blood collection, the TK animals were euthanized and the carcasses were discarded. At the end of the terminal and recovery periods, necropsy examinations were performed, organ weights were recorded, and selected tissues were microscopically examined.

[12] = Method: Five animals/sex were assigned to each dose group and were given daily oral doses of 0 (vehicle), 20, 40 or 80 mg/kg for up to 91 days. […] Three animals/sex/group were scheduled for termination at the end of the dosing period (Day 92) and two animals/sex/group were assigned to a 6-week non-dosing recovery phase and were terminated on Day 134.
Urine samples for urinalysis only were obtained by bladder puncture during necropsy. Urine samples for urinalysis and urine chemistry analysis were also obtained by drainage from special stainless-steel cage pans in Weeks −1, 1, 4, and 13, and from the remaining animals near the end of the recovery period.
Blood samples were collected for toxicokinetic analysis at various time points on Day 1 and during Weeks 4 and 13. […] At termination, a full necropsy was conducted on all animals, and tissues were collected, preserved, processed, and examined microscopically by a Veterinary Pathologist certified by the American College of Veterinary Pathologists.

[13] = remark: listed apart in the source
Method: The following parameters and end points were evaluated in this study: clinical signs (mortality/moribundity checks, cage side observations and food consumption, and postdose observations), body weights, veterinary physical examinations, lung evaluations, ophthalmology, electrocardiography, blood pressure and heart rate measurements, clinical pathology parameters (hematology, coagulation, clinical chemistry, urinalysis, urine chemistry, and troponin I analysis), toxicokinetic parameters, gross necropsy findings, organ weights, and histopathologic examinations.

IR = IR (Homo sapiens, UniProt P06213); experiment: biochemical
Sequence of IR (P06213 28-1382): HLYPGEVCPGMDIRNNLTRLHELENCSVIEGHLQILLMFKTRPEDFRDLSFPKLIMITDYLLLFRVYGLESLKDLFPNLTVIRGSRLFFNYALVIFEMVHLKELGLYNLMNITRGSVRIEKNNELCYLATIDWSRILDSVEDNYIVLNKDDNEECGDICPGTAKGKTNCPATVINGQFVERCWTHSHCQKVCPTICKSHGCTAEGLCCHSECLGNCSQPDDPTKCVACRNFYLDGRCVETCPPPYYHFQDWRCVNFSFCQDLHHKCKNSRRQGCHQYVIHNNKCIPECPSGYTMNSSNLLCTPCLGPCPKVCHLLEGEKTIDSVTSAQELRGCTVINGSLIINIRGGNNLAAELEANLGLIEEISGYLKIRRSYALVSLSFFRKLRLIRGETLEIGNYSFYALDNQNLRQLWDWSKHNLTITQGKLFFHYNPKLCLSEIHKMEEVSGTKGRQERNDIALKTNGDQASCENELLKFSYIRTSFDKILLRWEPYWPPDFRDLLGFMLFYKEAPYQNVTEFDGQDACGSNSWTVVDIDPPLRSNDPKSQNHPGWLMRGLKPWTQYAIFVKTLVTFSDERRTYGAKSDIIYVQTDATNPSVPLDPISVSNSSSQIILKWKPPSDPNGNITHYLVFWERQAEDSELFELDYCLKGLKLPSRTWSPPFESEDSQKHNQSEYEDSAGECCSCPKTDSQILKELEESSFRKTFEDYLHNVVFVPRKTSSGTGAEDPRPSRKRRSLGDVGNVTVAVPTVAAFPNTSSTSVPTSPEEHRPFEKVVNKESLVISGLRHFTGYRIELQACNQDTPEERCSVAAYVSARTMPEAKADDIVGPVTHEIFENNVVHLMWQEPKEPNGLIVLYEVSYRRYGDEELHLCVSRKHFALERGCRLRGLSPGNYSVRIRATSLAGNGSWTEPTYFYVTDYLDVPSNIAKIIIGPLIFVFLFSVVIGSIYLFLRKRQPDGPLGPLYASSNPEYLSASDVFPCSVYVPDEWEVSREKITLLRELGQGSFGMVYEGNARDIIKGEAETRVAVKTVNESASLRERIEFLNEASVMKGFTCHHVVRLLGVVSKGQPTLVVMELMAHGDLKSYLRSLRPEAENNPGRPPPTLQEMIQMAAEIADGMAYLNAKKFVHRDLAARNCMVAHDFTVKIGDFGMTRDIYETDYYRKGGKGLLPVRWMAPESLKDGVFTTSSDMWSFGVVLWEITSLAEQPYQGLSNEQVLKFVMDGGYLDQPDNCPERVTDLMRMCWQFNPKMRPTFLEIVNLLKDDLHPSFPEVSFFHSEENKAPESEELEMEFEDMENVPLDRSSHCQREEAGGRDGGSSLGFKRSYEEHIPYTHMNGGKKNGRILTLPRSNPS

CYP3A4 = CYP3A4 induction in vitro

For `CNC(=O)c1ccccc1Nc1nc(Nc2ccc3c(c2OC)CCCC(N2CCN(CCO)CC2)C3)ncc1Cl.Cl` (centres unmarked) [CEP-37440 (HCl salt), 2-(5-Chloro-2-{6-[4-(2-hydroxy-ethyl)-piperazin-1-yl]-1-methoxy-6,7,8,9-tetrahydro-5H-benzocyclohepten-2-ylamino}-pyrimidin-4-ylamino)-N-methyl-benzamide hydrochloride], which anti-tumor efficacy ([1]; 30 mg/kg bid po) is on record?
Its anti-tumor efficacy is “tumor regressions”.

What about the anti-tumor efficacy ([1]; 30 mg/kg, qd, po) of the same compound?
Its anti-tumor efficacy is “tumor regressions”.

What about the anti-tumor efficacy ([1]; 55 mg/kg qd po) of the same compound?
Its anti-tumor efficacy is “tumor regressions”.

And the “tolerability, body weight” value ([1]; 12 days treatment)?
The value was “well tolerated with no overt toxicity or compound-related weight loss”.

What about the anti-tumor efficacy ([2]; 30 mg/kg bid po) of the same compound?
The anti-tumor efficacy was “tumor stasis and partial regressions”.

And the anti-tumor efficacy ([2]; 55 mg/kg qd po)?
The anti-tumor efficacy was “tumor stasis and partial regressions”.

And the “tolerability, body weight” value ([2]; 12 days treatment)?
The value was “well tolerated with no overt toxicity or compound-related weight loss (FIGS. 14 and 15), except at 30 mg/kg, bid dose”.

What does the source list for `COc1c(Nc2ncc(Cl)c(N[C@H]3[C@@H](C(N)=O)[C@@H]4C=C[C@H]3C4)n2)ccc2c1CC[C@@H](N1CCOCC1)CC2` [CEP-28122, (1 S,2S,3R,4R)-3-[5-chloro-2-((S)-1-methoxy-7-morpholin-4-yl-6,7,8,9-tetrahydro-5H-benzocyclohepten-2-ylamino)-pyrimidin-4-ylamino]-bicyclo[2.2.1]hept-5-ene-2-carboxylic acid amide]?
IC50 (ALK [3]): 3 nM; IC50 (ALK [4]; 75% human plasma, read-out: ALK cellular IC50 in 75% human plasma): 300 nM; IC50 (ALK [4]; 75% murine plasma, read-out: ALK cellular IC50 in 75% murine plasma): 300 nM; IC50 (ALK [4]; read-out: ALK cellular IC50): 30 nM; IC50 (FAK [5]): 29.5 nM; IC50 (FAK [6]): 944 nM; Ki (Adrenergic α1B (R)): 2200 nM; Ki (Adrenergic α1D (H)): 1100 nM; IC50 (hERG): > 10000 nM; solubility thermodynamic (Equilibrium solubility; pH 2, simulated gastric fluid, read-out: Equilibrium solubility at pH 2): > 3000 µg/mL; solubility thermodynamic (Equilibrium solubility; pH 7.4, aqueous buffer, read-out: Equilibrium solubility at pH 7.4): 13 µg/mL (≈ 24.1 µM); half-life [7]: 13.2 min; half-life [8]: 6.7 min; half-life [9]: < 5 min; half-life [10]: 10.3 min; half-life [11]: 19.9 min; IC50 (CYP 1A2): > 30000 nM; IC50 (CYP 2C9): 1300 nM; IC50 (CYP 2C19): 6800 nM; IC50 (CYP 2D6): 17300 nM; Papp (Caco-2 permeability): 12.6 ×10⁻⁶ cm/s; Protein binding (Protein binding, mouse): 95 % bound; Protein binding (Protein binding, dog): 96 % bound; Protein binding (Protein binding, human): 99.2 % bound; Rat bioavailability (Rat bioavailability): 25%; Mouse bioavailability (Mouse bioavailability; CD-1 mouse): 51%; Mouse bioavailability (Mouse bioavailability; Scid mouse): 71%; bioavailability (Monkey bioavailability; 10 mg/kg): 16%; bioavailability (Monkey bioavailability; 30 mg/kg): 37%; drug-related deaths (in vivo; 30, 75, 150 mg/kg/day oral, 91 days): no drug-related deaths; dosages with adverse histopathological effects in the kidney persisting through 4-week recovery (in vivo; both, Sprague-Dawley, rat, in vivo, po, 91 days): ≥ 75 mg/kg/day; NOAEL at 91 days (in vivo; both, rat, in vivo, po): 30 mg/kg/day; animals with seizures ([12]; 80 mg/kg, Days 9 and/or 10): 2 animals; lung gross and histologic findings, early death animals ([12]; 20, 40, 80/60 mg/kg): pulmonary edema was identified in all dose groups; morbidity and mortality ([12]; 20, 40, 80/60 mg/kg daily, 91 days): morbidity and mortality in two animals dosed with 80/60 mg/kg and likely two additional animals; hematology changes ([12]; 80/60 mg/kg, from Day 28, returned to baseline by end of recovery): decrease in lymphocytes; liver enzymes in surviving animals ([12]; 80/60 mg/kg, returned to baseline by end of recovery): increased alanine aminotransferase (ALT) and aspartate aminotransferase (AST); morbidity or mortality ([13]; 3, 10, 20, 40 mg/kg/day oral, 4 weeks): did not result in any morbidity or mortality; dose levels with vacuolated cells in the lungs still present after 4-week recovery ([13]; both, cynomolgus monkey, in vivo): ≥ 20 mg/kg/day; dose levels with histological effects in the lung (vacuolated cells, increased lung weight) ([13]; both, cynomolgus monkey, in vivo, po, 4 weeks): ≥ 10 mg/kg/day; IC50 (IR): 996 nM; CYP3A4 induction in vitro (CYP3A4; @ 0.3 μM): 0.95 fold; CYP3A4 induction in vitro (CYP3A4; @ 3.0 μM): 1.3 fold
